Reference: ChEMBL document CHEMBL1201862, “PubChem BioAssay data set” (2004)
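Dose response: 5 concentrations. Exposure: 48 h. Format: 96-well plates. Endpoint: linear interpolation; highest concentration if not reached. The concentration for 50% growth inhibition is given as GI50.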 Active and inactive are the calls of the source. Rule as the data show it: active = GI50 up to about 1.1 µM and inactive = higher.

How the values were obtained:
Test in all cases: NCI-60 cell line screen, 48 h
DU-145 = test system: DU-145
ACHN = test system: ACHN
IGROV-1 = test system: IGROV-1
SF-268 = test system: SF-268
A498 = test system: A498
U-251 = test system: U-251
HL-60 = test system: HL-60
MDA-N = test system: MDA-N
EKVX = test system: EKVX
M14 = test system: M14
PC-3 = test system: PC-3
NCI/ADR-RES = test system: NCI/ADR-RES
SK-MEL-28 = test system: SK-MEL-28
RXF 393 = test system: RXF 393
SNB-75 = test system: SNB-75
NCI-H226 = test system: NCI-H226
KM12 = test system: KM12
CAKI-1 = test system: CAKI-1
BT-549 = test system: BT-549
SW-620 = test system: SW-620
NCI-H23 = test system: NCI-H23
LOX IMVI = test system: LOX IMVI
786-0 = test system: 786-0
HOP-92 = test system: HOP-92
MDA-MB-231 = test system: MDA-MB-231
COLO 205 = test system: COLO 205
NCI-H460 = test system: NCI-H460
SF-539 = test system: SF-539
OVCAR-5 = test system: OVCAR-5
HCC 2998 = test system: HCC 2998
UACC-62 = test system: UACC-62
OVCAR-8 = test system: OVCAR-8
OVCAR-4 = test system: OVCAR-4
K562 = test system: K562
Hs-578T = test system: Hs-578T
SF-295 = test system: SF-295
UACC-257 = test system: UACC-257
SK-OV-3 = test system: SK-OV-3
Malme-3M = test system: Malme-3M
T47D = test system: T47D
SK-MEL-5 = test system: SK-MEL-5
MCF7 = test system: MCF7
CCRF-CEM = test system: CCRF-CEM
SK-MEL-2 = test system: SK-MEL-2
OVCAR-3 = test system: OVCAR-3
UO-31 = test system: UO-31
NCI-H522 = test system: NCI-H522
SNB-19 = test system: SNB-19
MDA-MB-435 = test system: MDA-MB-435
HCT-116 = test system: HCT-116
HOP-62 = test system: HOP-62
HT-29 = test system: HT-29
TK-10 = test system: TK-10
A549 = test system: A549
SR = test system: SR
MOLT-4 = test system: MOLT-4
HCT-15 = test system: HCT-15
RPMI-8226 = test system: RPMI-8226
SN12C = test system: SN12C

SMILES: C[C@@H]1CCC2[C@@H](C)[C@H](O[C@H]3O[C@@H]4O[C@@]5(C)CCC6[C@H](C)CCC([C@H]3C)[C@]64OO5)O[C@@H]3O[C@@]4(C)CCC1[C@@]23OO4 (stereo partly drawn)
- GI50 (DU-145): 1930 nM (inactive)
- GI50 (ACHN): 95.3 nM (active)
- GI50 (IGROV-1): 931 nM (active)
- GI50 (SF-268): 3440 nM (inactive)
- GI50 (A498): 4150 nM (inactive)
- GI50 (U-251): 63.7 nM (active)
- GI50 (HL-60): 24.3 nM (active)
- GI50 (MDA-N): 136 nM (active)
- GI50 (EKVX): 142 nM (active)
- GI50 (M14): 475 nM (active)
- GI50 (PC-3): 14.8 nM (active)
- GI50 (NCI/ADR-RES): 192 nM (active)
- GI50 (SK-MEL-28): 5690 nM (inactive)
- GI50 (RXF 393): 1300 nM (inactive)
- GI50 (SNB-75): 188 nM (active)
- GI50 (NCI-H226): 2110 nM (inactive)
- GI50 (KM12): 31.7 nM (active)
- GI50 (CAKI-1): 270 nM (active)
- GI50 (BT-549): 55.3 nM (active)
- GI50 (SW-620): 41.8 nM (active)
- GI50 (NCI-H23): 41.5 nM (active)
- GI50 (LOX IMVI): 25.8 nM (active)
- GI50 (786-0): 361 nM (active)
- GI50 (HOP-92): 114 nM (active)
- GI50 (MDA-MB-231): 385 nM (active)
- GI50 (COLO 205): 38.8 nM (active)
- GI50 (NCI-H460): 67.5 nM (active)
- GI50 (SF-539): 264 nM (active)
- GI50 (OVCAR-5): 352 nM (active)
- GI50 (HCC 2998): 813 nM (active)
- GI50 (UACC-62): 80.5 nM (active)
- GI50 (OVCAR-8): 92.9 nM (active)
- GI50 (OVCAR-4): 270 nM (active)
- GI50 (K562): 20.2 nM (active)
- GI50 (Hs-578T): 390 nM (active)
- GI50 (SF-295): 320 nM (active)
- GI50 (UACC-257): 91.2 nM (active)
- GI50 (SK-OV-3): 452 nM (active)
- GI50 (Malme-3M): 635 nM (active)
- GI50 (T47D): 29.3 nM (active)
- GI50 (SK-MEL-5): 90 nM (active)
- GI50 (MCF7): 92.5 nM (active)
- GI50 (CCRF-CEM): 46.2 nM (active)
- GI50 (SK-MEL-2): 401 nM (active)
- GI50 (OVCAR-3): 408 nM (active)
- GI50 (UO-31): 55.9 nM (active)
- GI50 (NCI-H522): 57.7 nM (active)
- GI50 (SNB-19): 3170 nM (inactive)
- GI50 (MDA-MB-435): 60 nM (active)
- GI50 (HCT-116): 17.7 nM (active)
- GI50 (HOP-62): 4040 nM (inactive)
- GI50 (HT-29): 49.1 nM (active)
- GI50 (TK-10): 205 nM (active)
- GI50 (A549): 91.4 nM (active)
- GI50 (SR): 31.8 nM (active)
- GI50 (MOLT-4): 54.6 nM (active)
- GI50 (HCT-15): 22 nM
- GI50 (RPMI-8226): 12.7 nM (active)
- GI50 (SN12C): 186 nM (active)

SMILES: O=C1Nc2ccccc2/C1=C1/Nc2ccccc2/C1=N/OCCOCCO
- GI50 (DU-145): 1390 nM (inactive)
- GI50 (ACHN): 738 nM (active)
- GI50 (IGROV-1): 83.6 nM (active)
- GI50 (SF-268): 3190 nM (inactive)
- GI50 (A498): 259 nM (active)
- GI50 (U-251): 3290 nM (inactive)
- GI50 (HL-60): 2110 nM (inactive)
- GI50 (MDA-N): 3240 nM (inactive)
- GI50 (EKVX): 2670 nM (inactive)
- GI50 (M14): 1900 nM (inactive)
- GI50 (PC-3): 2360 nM (inactive)
- GI50 (NCI/ADR-RES): 4170 nM (inactive)
- GI50 (SK-MEL-28): 5050 nM (inactive)
- GI50 (RXF 393): 1030 nM (active)
- GI50 (SNB-75): 2350 nM (inactive)
- GI50 (NCI-H226): 547 nM (active)
- GI50 (KM12): 42.3 nM (active)
- GI50 (CAKI-1): 201 nM (active)
- GI50 (BT-549): 2380 nM (inactive)
- GI50 (SW-620): 1820 nM (inactive)
- GI50 (NCI-H23): 3070 nM (inactive)
- GI50 (LOX IMVI): 869 nM (active)
- GI50 (786-0): 2480 nM (inactive)
- GI50 (HOP-92): 13800 nM (inactive)
- GI50 (MDA-MB-231): 5930 nM (inactive)
- GI50 (COLO 205): 1390 nM (inactive)
- GI50 (NCI-H460): 1210 nM (inactive)
- GI50 (SF-539): 2880 nM (inactive)
- GI50 (OVCAR-5): 4620 nM (inactive)
- GI50 (HCC 2998): 2760 nM (inactive)
- GI50 (UACC-62): 1440 nM (inactive)
- GI50 (OVCAR-8): 3910 nM (inactive)
- GI50 (OVCAR-4): 7190 nM (inactive)
- GI50 (K562): 5000 nM (inactive)
- GI50 (Hs-578T): 592 nM (active)
- GI50 (SF-295): 3100 nM (inactive)
- GI50 (UACC-257): 17500 nM (inactive)
- GI50 (SK-OV-3): 361 nM (active)
- GI50 (Malme-3M): 1430 nM (inactive)
- GI50 (T47D): 2890 nM (inactive)
- GI50 (SK-MEL-5): 1570 nM (inactive)
- GI50 (MCF7): 1990 nM (inactive)
- GI50 (CCRF-CEM): 3270 nM (inactive)
- GI50 (SK-MEL-2): 644 nM (active)
- GI50 (OVCAR-3): 2060 nM (inactive)
- GI50 (UO-31): 662 nM (active)
- GI50 (NCI-H522): 2470 nM (inactive)
- GI50 (SNB-19): 6520 nM (inactive)
- GI50 (MDA-MB-435): 3150 nM (inactive)
- GI50 (HCT-116): 582 nM (active)
- GI50 (HOP-62): 3900 nM (inactive)
- GI50 (HT-29): 1450 nM (inactive)
- GI50 (TK-10): 1860 nM (inactive)
- GI50 (A549): 1690 nM (inactive)
- GI50 (SR): 1680 nM (inactive)
- GI50 (MOLT-4): 2960 nM (inactive)
- GI50 (HCT-15): 664 nM
- GI50 (RPMI-8226): 3470 nM (inactive)
- GI50 (SN12C): 2690 nM (inactive)
